# Biological target: T1, AXL (human catalytic domain) (Homo sapiens, UniProt P30530)
# T1 construct: purchased Upstate Ltd. 14-512
# T1 sequence (P30530 473-894): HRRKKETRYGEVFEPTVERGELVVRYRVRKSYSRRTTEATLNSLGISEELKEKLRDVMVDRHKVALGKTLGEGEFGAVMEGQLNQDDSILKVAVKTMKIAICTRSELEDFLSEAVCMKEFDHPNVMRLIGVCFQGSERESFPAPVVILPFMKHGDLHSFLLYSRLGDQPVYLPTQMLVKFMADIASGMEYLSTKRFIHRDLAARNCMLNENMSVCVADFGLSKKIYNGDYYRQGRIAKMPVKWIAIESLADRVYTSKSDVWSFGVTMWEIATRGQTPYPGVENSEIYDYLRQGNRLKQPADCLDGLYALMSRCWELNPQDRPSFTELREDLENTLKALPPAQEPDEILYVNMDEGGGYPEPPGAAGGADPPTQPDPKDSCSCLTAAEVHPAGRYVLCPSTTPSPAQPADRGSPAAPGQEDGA
# Assay: AXL (human catalytic domain) Enzyme Activity Assay (IMAP fluorescence polarisation)
# Assay type: biochemical
# Protocol: Biological Methods AXL (human catalytic domain) Enzyme Activity Assay Reagents
# Kinase Assay Reaction Buffer: This consisted of 20 mM HEPES pH 7.0, 10 mM MgCl2, 1 mM DTT, […], 0.01% Triton X100 (v/v), and 0.01% BSA (w/v). All buffer components were purchased from Sigma-Aldrich at reagent grade or higher.
# Kinase: Recombinant AXL isoform 1 (aa473-894 corresponding to Genbank Accession Number NP 068713) at 2 mg/mL (20.8 μM) was purchased from Upstate Ltd. (Product code 14-512, lot #28164U). The enzyme was stored at −80° C. and a working stock was prepared to a concentration of 30 nM by diluting 20.8 μM stock 1:693 in cold (4° C.) 1× Reaction Buffer. Final enzyme concentration in the assay was 15 nM.
# Substrate: Fluorescein labelled CSK-tide 5FAM-[…]-NH2 was obtained from Molecular Devices (Product code R7270) and used at a working concentration of 200 nM by diluting the 100 μM stock 1:500 in 1× Reaction Buffer in a mix with the enzyme. A negative control (lacking enzyme) was prepared at the same concentrations. Final substrate concentration in the assay was 100 nM.
# ATP: Supplied by Sigma (product code A-7699). A 100 mM ATP stock was prepared in […] and used at a working concentration of 375 μM by diluting the 100 mM stock 1:266.6 in Reaction Buffer. Final ATP concentration in the assay was 150 μM; this concentration represents the KM.ATP for this enzyme calculated in this assay.
# IMAP Reagents: IMAP screening express kit was obtained from Molecular Devices (product code R8127). The binding reagent was gently re-suspended before diluting by 1:1000 in buffer (Binding Buffer is supplied as a 5× stock and so was diluted with water prior to use—this assay used 40% buffer A and 60% buffer B) and then vortexed before addition to wells. The binding reagent was used at a final dilution of 1:1333.
# 1 μL samples of test compounds in 10% DMSO/water were added to “test” wells by dry-spotting using a Matrix Platemate Plus. 5 μL Kinase/Substrate in Reaction Buffer were added to columns 1-22 of a Corning black low binding 384 well #6754 (90 μL volume) microplate to give 12 nM and 100 nM reaction concentration respectively. 5 μL substrate in Reaction Buffer was added to columns 23 and 24 to give 100 nM reaction concentration. 4 μL ATP in Reaction Buffer was added to all wells to give 150 μM reaction concentration. The reaction mixture was then incubated at room temperature for 60 minutes. The incubation period was followed by the addition of 20 μL IMAP Binding Reagent in Binding Buffer to all wells. The IMAP reaction detection was further incubated at room temperature overnight. The FP on a Tecan Ultra Plate reader was recorded as a single read at Ex485 Em535.
# Percentage inhibition was calculated based on activity of the test sample minus the average values in the blank wells relative to the average values measured in control wells minus the average values in the blank wells.
# IC50 values were calculated from 10 point dose sigmoid ‘dose-response’ curves using XIfit software (IDBS Inc, USA). Data were fitted to a 4 parameter logistic model/sigmoidal dose response defined by the following equation:
# [formula] where: • A=fit minimum (locked to 0); • B=fit maximum (locked to 100); • C=fit midpoint (pre-fit to 1); and • D=slope at linear portion of curve, hillslope (pre-fit to 0.1).
# The value for C represents the IC50 of the test compound.
# [1] = first data set, recombinant AXL isoform 1 aa473-894, 150 μM ATP
# [2] = further data set (WW-001 through WW-169, XX-001 through XX-469, YY-001 through YY-016, ZZ-001 through ZZ-003), 150 μM ATP
Compound,IC50 [1] [nM],IC50 [2] [nM]
Cc1ccc(-c2cccc3nc(NC(=O)C4CC4)nn23)cc1 [WW-047],< 1000,100 to 1000
O=C(Nc1nc2cccc(-c3ccc4c(c3)OCO4)n2n1)C1CC1 [WW-049],< 1000,100 to 1000
NCc1ccc(-c2cccc3nc(NC(=O)C4CC4)nn23)cc1 [WW-050],1000 to 10000,1000 to 10000
O=C(Nc1nc2cccc(-c3cncc(F)c3)n2n1)C1CC1 [WW-052],1000 to 10000,1000 to 10000
O=C(Nc1nc2cccc(-c3ccn[nH]3)n2n1)C1CC1 [WW-053],1000 to 10000,1000 to 10000
Nc1cccc(-c2cccc3nc(NC(=O)C4CC4)nn23)c1 [WW-054],< 1000,100 to 1000
Cc1ccc(-c2cccc3nc(NC(=O)C4CC4)nn23)s1 [WW-055],1000 to 10000,1000 to 10000
"O=C(Nc1nc2cccc(-c3ccoc3)n2n1)C1CC1 [WW-056, Cyclopropanecarboxylic acid (5-furan-3-yl [1,2,4]triazolo[1,5-a]pyridin-2-yl)-amide]",1000 to 10000,1000 to 10000
O=C(Nc1nc2cccc(-c3cccs3)n2n1)C1CC1 [WW-057],1000 to 10000,1000 to 10000
Cc1csc(-c2cccc3nc(NC(=O)C4CC4)nn23)c1 [WW-058],1000 to 10000,1000 to 10000
O=C(Nc1nc2cccc(-c3ccsc3)n2n1)C1CC1 [WW-059],< 1000,100 to 1000
"O=C(Nc1nc2cccc(-c3cn[nH]c3)n2n1)C1CC1 [WW-060, cyclopropanecarboxylic acid [5-(1H-pyrazol-4-yl)-[1,2,4]triazolo[1,5-a]pyridin-2-yl]-amide]",1000 to 10000,1000 to 10000
O=C(Nc1nc2cccc(-c3ccco3)n2n1)C1CC1 [WW-061],1000 to 10000,1000 to 10000
O=C(Nc1nc2cccc(-c3ccc(N4CCOCC4)nc3)n2n1)C1CC1 [WW-062],1000 to 10000,1000 to 10000
O=C(Nc1nc2cccc(-c3ccc(-c4ccccc4)cc3)n2n1)C1CC1 [WW-063],< 1000,100 to 1000
Cn1cc(-c2cccc3nc(NC(=O)C4CC4)nn23)cn1 [WW-064],< 1000,100 to 1000
Cn1ccc2cc(-c3cccc4nc(NC(=O)C5CC5)nn34)ccc21 [WW-066],< 1000,100 to 1000
COc1ccc(-c2cccc3nc(NC(=O)C4CC4)nn23)cc1F [WW-067],1000 to 10000,1000 to 10000
CC(=O)Nc1ccc(-c2cccc3nc(NC(=O)C4CC4)nn23)cc1 [WW-068],1000 to 10000,1000 to 10000
CN(C)c1ccc(-c2cccc3nc(NC(=O)C4CC4)nn23)cc1 [WW-069],< 1000,100 to 1000
COC(=O)c1ccc(-c2cccc3nc(NC(=O)C4CC4)nn23)cc1 [WW-070],1000 to 10000,1000 to 10000
CN(C)c1cccc(-c2cccc3nc(NC(=O)C4CC4)nn23)c1 [WW-071],1000 to 10000,1000 to 10000
CCCCNc1cccc2nc(NC(=O)C3CC3)nn12 [WW-073],1000 to 10000,1000 to 10000
"O=C(Nc1nc2cccc(NCc3ccccn3)n2n1)C1CC1 [WW-075, Cyclopropanecarboxylic acid {5-[(pyridin-2-ylmethyl)-amino]-[1,2,4]triazolo[1,5-a]pyridin-2-yl}-amide]",1000 to 10000,1000 to 10000
CN1CCCC1CCNc1cccc2nc(NC(=O)C3CC3)nn12 (stereo not drawn) [WW-076],1000 to 10000,1000 to 10000
O=C(Nc1nc2cccc(NCCc3c[nH]c4ccccc34)n2n1)C1CC1 [WW-077],1000 to 10000,1000 to 10000
O=C(Nc1nc2cccc(NC3CCCC3)n2n1)C1CC1 [WW-078],1000 to 10000,1000 to 10000

# Source: patent publication US8431596B2 (Cancer Research Technology Limited, priority 2007, dated 2013)
